One block for each compound: values may come before it.
Assay: Plasma pharmacokinetics of co-administered aspirin (100 mg qd)/salicylic acid, clopidogrel (300 mg then 75 mg qd), ticagrelor (180 mg then 90 mg bid)/AR-C124910XX with SHR2285 or placebo
Procedure: For group A, the dosing regimen was aspirin + clopidogrel + placebo or SHR2285 200 mg. Specifically, aspirin: 100 mg was taken orally every morning from day 1 to day 6; clopidogrel: 300 mg in the morning of the first day, 75 mg in the morning of the second day to the sixth day; placebo or SHR2285 (1:3): 200 mg orally every morning and evening until the morning of the sixth day.
For group B, the dosing regimen was aspirin + clopidogrel + placebo or SHR2285 300 mg. The use of aspirin and clopidogrel was the same as that of group A; Placebo or SHR2285: added the amount to 300 mg based on group A.
For group C, the administration regimen was aspirin + ticagrelor + placebo or SHR2285 300 mg. The use of aspirin, placebo or SHR2285 was the same as that in group B. Clopidogrel in group B was adjusted to ticagrelor: 180 mg orally in the morning of the first day, 90 mg in the morning and evening from the second day to the morning of the sixth day.
PK blood collection points: the blood of each group was collected in the morning of day 1 before administration (within 1 h before administration), 4 h and 12 h after administration (before administration in the evening); in the morning of day 3, day 4, and day 5 before administration (within 1 h before administration), within 1 h before administration on the morning of the sixth day, and 0.5 h, 1 h, 1.5 h, 2 h, 2.5 h, 3 h, 4 h, 5 h, 6 h, 8 h, 10 h, 12 h, 15 h, 24 h, 36 h, and 48 h after administration. About 7 ml of venous blood was collected, and the plasma was collected for concentration determination of aspirin and its active metabolites (salicylic acid) and clopyridine (group A, group B), ticagrelor and its active metabolite AR-C124910XX (group C), SHR2285 and its active metabolite SHR164471.
Based on the actual sampling time, the PK parameters of each component were calculated as a non-compartmental model by WinNonlin (Certara United States Inc, version 8.1). The pharmacokinetic parameters after multiple administrations were investigated: Cmax, AUCtau, AUC0-last, AUC0-inf, Tmax, t1/2, CLss/F, Vss/F, Ctrough and Caverage. The main pharmacokinetic parameters such as AUC0-last, AUC0-inf and Cmax were tabulated and summarized by descriptive statistics.
After logarithmic conversion, the AUCss and Cmax of each component in the SHR2285 group (aspirin + clopidogrel/ticagrelor + SHR2285) and placebo group (aspirin + clopidogrel/ticagrelor + placebo) were statistically analyzed by ANOVA model. The medication group was used as the independent variable. The geometric mean ratio of the corresponding PK parameter (SHR2285/placebo group) and the estimated value of its 90% confidence interval was obtained by taking the exponential conversion from the mean difference estimated by the model (SHR2285 group-placebo group) and its 90% confidence interval. SHR2285 and its metabolite SHR164471, aspirin/salicylic acid, clopidogrel, ticagrelor and its metabolite AR-C124910XX were determined by Frontage Laboratories Co., Ltd. (Shanghai, China) using high-performance liquid chromatography-tandem mass spectrometry (HPLC-MS, Sciex API 4000). The chromatographic column is WATERS CORTECS®T3 (50 mm × 4.6 mm, id 2.7 μm), column temperature is set at 40°C. Mobile phase A is ultrapure water (containing 0.1% formic acid), and mobile phase B is acetonitrile/water (90:10, containing 0.1% formic acid). The elution gradient is: 0–0.4 min, A-B (50:50), 0.4–0.8 min, A-B (5:95), 0.8–2 min, A-B (5:95), 2–2.4 (50:50), 2.4–3.5 min, A-B (50:50). The total time was 3.5 min and the flow rate was 1.0 ml/min. The ion source was ESI source at positive ion mode. The heating capillary temperature was 400°C; CAD was nine; curtain gas was 30; GS1 (N2) was 50; GS2 (N2) was 50; The method used was multiple reaction monitoring (MRM), and the ion reactions used for quantitative analysis were m/z 545.1→408.0 (SHR2285) and m/z 721.2→408.1 (SHR164471), respectively.

[1] = Placebo (C) n=8: aspirin + ticagrelor + placebo, day 6
[2] = SHR2285 (C) n=12: aspirin + ticagrelor + SHR2285 300 mg bid, day 6

AUCtau [1]: 2490(38.3) h*ng/mL | Cmax [1]: 389(35.4) ng/ml | Tmax (Placebo (C) n=8: aspirin + ticagrelor + placebo, day 6, median (range)): 1.5(1.0-2.5) h | AUCtau [2]: 2280(26.4) h*ng/mL | Cmax [2]: 367(28.1) ng/ml | Tmax (SHR2285 (C) n=12: aspirin + ticagrelor + SHR2285 300 mg bid, day 6, median (range)): 1.75(1.5-2.5) h | steady state in plasma (group C, six days after administration of ticagrelor): reached a steady state | Tmax (range across SHR2285 and placebo groups, day 6): 1.5 to 1.75 h
Compound: CCCSc1nc(N[C@@H]2C[C@H]2c2ccc(F)c(F)c2)c2nnn([C@@H]3C[C@H](O)[C@@H](O)[C@H]3O)c2n1 [AR-C124910XX]

Tmax (human, in vivo): one to 1.5
Compound: COC(=O)[C@H](c1ccccc1Cl)N1CCc2sccc2C1 [Clopidogrel, clopidogrel]

GLSMR of AUCtau (SHR2285 group/placebo group) (human, in vivo): 0.929 | GLSMR of Cmax (SHR2285 group/placebo group) (human, in vivo): 1.06 | Tmax (human, in vivo, Tmax): 1.5 to 1.75 h | steady state in plasma (in vivo): reached a steady state
Compound: CCCSc1nc(N[C@@H]2C[C@H]2c2ccc(F)c(F)c2)c2nnn([C@@H]3C[C@H](OCCO)[C@@H](O)[C@H]3O)c2n1 [Ticagrelor, ticagrelor]
